# Publication PMC6949113, “Preclinical evaluation of AT-527, a novel guanosine nucleotide prodrug with potent, pan-genotypic activity against hepatitis C virus” (PLoS ONE, 2020)
# Columns and labels:
# [1] = molecular target: T1, human DNA polymerase β (Homo sapiens, UniProt P06746); assay: Human DNA polymerase inhibition assay, β; assay type: biochemical
# T1 construct: purchased CHIMERx (Madison, WI)
# Method: The polymerases were purchased from CHIMERx (Madison, WI). Inhibition of DNA polymerase α activity was assayed in microtiter plates in 20 mM Tris-HCl, pH 8, 5 mM Mg acetate, 0.3 mg/mL BSA, 1mM DTT, 0.1 mM spermine, 0.05 mM dCTP, dTTP and dATP, 10 μCi ^32P-α-dGTP (800 Ci/mmol), 20 μg activated calf thymus DNA and the test compound at indicated concentrations. The DNA polymerase β and γ reaction mixture contained 50 mM Tris-HCl, pH 8.7, KCl (10 mM for β and 100 mM for γ), 10 mM MgCl2, 0.4 mg/mL BSA, 1mM DTT, 15% glycerol, 0.05 mM dCTP, dTTP and dATP, 10 μCi ^32P-α-dGTP (800 Ci/mmol), 20 μg activated calf thymus DNA and test compound at the indicated concentrations. For each assay, samples were run in triplicate, and positive controls were included. The enzyme reactions were allowed to proceed for 30 min at 37 °C followed by transfer onto glass-fiber filter plates and subsequent precipitation with 10% trichloroacetic acid (TCA). Plates were washed five times with 5% TCA, once with 95% ethanol and dried. The radioactive content of each filter was measured and used to determine the extent of inhibition of each polymerase.
# [2] = molecular target: human mitochondrial RNA polymerase (POLRMT) (Homo sapiens, UniProt O00411); assay: POLRMT nucleotide incorporation assay; assay type: biochemical
# [3] = molecular target: T2, HCV NS5B polymerase (RdRp) (Hepatitis C virus genotype 1b, UniProt Q9WMX2); assay: HCV NS5B polymerase (RdRp) assay; assay type: biochemical
# T2 construct: HCV NS5B polymerase (RdRp) assay
# Method: RdRp activity was determined by the incorporation of radiolabeled ribonucleotide into synthesized RNA. […] HCV796 (Southern Research, Frederick, MD) was used as positive control for the assay.
# [4] = Monkey PK study, plasma; assay type: in vivo, cynomolgus monkey; details: for plasma concentration, individual monkeys: AT-527 30 mg/kg oral, monkeys 1-3, BQL: <0.0017 AT-511, <0.0032 AT-273; for plasma concentration: male cynomolgus monkeys; for Cmax / MRT last / Tmax / AUC(0-t): male, cynomolgus, cynomolgus monkey; for AUC(0-t): read-out: AUC0-last
# Excerpt: Monkey PK study. Male non-naïve cynomolgus monkeys were obtained from Hainan Jingang Laboratory Animal Co., Ltd. (Hainan, China), group housed during the 5-day acclimation period or individually housed during the study in stainless steel mesh cages, provided ad libitum access to RO water, fed twice daily (~120 g Certified Monkey Diet daily; Beijing Vital Keao Feed Co., Ltd., Beijing, China) and given daily treats of fresh fruit. Additional environmental enrichment included classical music and cartoons. Three groups of 5 monkeys each were administered 30, 100 or 300 mg/kg AT-527 as a powder filled in empty porcine hard gelatin capsules (size 0). The monkeys were fasted overnight prior to dosing and fed 4 h after dosing. Three dosages were selected to provide assessments of dose proportionality, the top two representing potential doses for a repeated oral dose toxicity study in monkeys, and the lowest predicted to be more therapeutically relevant. A pill gun was used to place the capsule beyond the root of the animals’ tongues and their mouths were held loosely closed for approximately 30 sec to allow them to move the jaw and swallow the capsule. Immediately following capsule administration, 20 mL of water was given by mouth and then the mouth was opened to ensure the capsule was swallowed. Blood samples (~0.6 mL) were collected up to 72 h from three animals per dose group, and up to 4 h from the remaining two animals in each group, at the same time points described for rats. […] Blood samples were collected with a syringe from a peripheral blood vessel from restrained, non-sedated animals, immediately transferred to pre-chilled tubes containing ~1 mg K2EDTA•2H20 and 20 μL of 5 mM dichlorvos solution, mixed and placed on ice until plasma was prepared by centrifugation as described for rats. Immediately after centrifugation, plasma samples were extracted with 4 volumes ISS2, and the supernatants were clarified by centrifugation (12,000 rpm, 10 min, 4°C) and stored at ≤ -60°C until analyzed by LC-MS/MS as described below. After the 4-hr blood collection, two monkeys per dose group were anesthetized with intravenous injection of pentobarbital sodium (60 mg/kg) and then euthanized as described for rats. […] All analytes were quantitated by LC-MS/MS as described below.
# LC-MS/MS analysis of rat and monkey plasma and tissue homogenate supernatants. For the analysis of AT-511 in rat plasma, aliquots were extracted with 10 volumes ISS2. The supernatants were clarified by centrifugation (4000 rpm for 10 min at 4°C) and 3 μL samples were injected onto an Acuity BEH C18 1.7 μm, 2.1 × 50 mm column and a Sciex API 4000 mass spectrometer (ESI positive ion, MRM mode). Mobile phases A (0.025% formic acid (FA) and 1 mM ammonium acetate (AA) in 5% ACN in water) and B (0.025% FA and 1 mM AA in 95% ACN in water) were used to elute samples (3 μL) at 0.6 mL/min with 10% B for 0.3 min followed by linear gradients to 60% B over 0.6 min and to 90% B over 0.2 min, and ending with 90% B for 0.4 min.
# PK data analysis. […] The linear/log trapezoidal rule was applied in obtaining the PK parameters.
# [5] = Rat pharmacokinetic study, plasma; assay type: in vivo, Sprague-Dawley rat; details: both sexes, Sprague-Dawley, rat, in vivo, po, 500 mg/kg
# Chain of human mitochondrial RNA polymerase (POLRMT) (O00411 42-1230): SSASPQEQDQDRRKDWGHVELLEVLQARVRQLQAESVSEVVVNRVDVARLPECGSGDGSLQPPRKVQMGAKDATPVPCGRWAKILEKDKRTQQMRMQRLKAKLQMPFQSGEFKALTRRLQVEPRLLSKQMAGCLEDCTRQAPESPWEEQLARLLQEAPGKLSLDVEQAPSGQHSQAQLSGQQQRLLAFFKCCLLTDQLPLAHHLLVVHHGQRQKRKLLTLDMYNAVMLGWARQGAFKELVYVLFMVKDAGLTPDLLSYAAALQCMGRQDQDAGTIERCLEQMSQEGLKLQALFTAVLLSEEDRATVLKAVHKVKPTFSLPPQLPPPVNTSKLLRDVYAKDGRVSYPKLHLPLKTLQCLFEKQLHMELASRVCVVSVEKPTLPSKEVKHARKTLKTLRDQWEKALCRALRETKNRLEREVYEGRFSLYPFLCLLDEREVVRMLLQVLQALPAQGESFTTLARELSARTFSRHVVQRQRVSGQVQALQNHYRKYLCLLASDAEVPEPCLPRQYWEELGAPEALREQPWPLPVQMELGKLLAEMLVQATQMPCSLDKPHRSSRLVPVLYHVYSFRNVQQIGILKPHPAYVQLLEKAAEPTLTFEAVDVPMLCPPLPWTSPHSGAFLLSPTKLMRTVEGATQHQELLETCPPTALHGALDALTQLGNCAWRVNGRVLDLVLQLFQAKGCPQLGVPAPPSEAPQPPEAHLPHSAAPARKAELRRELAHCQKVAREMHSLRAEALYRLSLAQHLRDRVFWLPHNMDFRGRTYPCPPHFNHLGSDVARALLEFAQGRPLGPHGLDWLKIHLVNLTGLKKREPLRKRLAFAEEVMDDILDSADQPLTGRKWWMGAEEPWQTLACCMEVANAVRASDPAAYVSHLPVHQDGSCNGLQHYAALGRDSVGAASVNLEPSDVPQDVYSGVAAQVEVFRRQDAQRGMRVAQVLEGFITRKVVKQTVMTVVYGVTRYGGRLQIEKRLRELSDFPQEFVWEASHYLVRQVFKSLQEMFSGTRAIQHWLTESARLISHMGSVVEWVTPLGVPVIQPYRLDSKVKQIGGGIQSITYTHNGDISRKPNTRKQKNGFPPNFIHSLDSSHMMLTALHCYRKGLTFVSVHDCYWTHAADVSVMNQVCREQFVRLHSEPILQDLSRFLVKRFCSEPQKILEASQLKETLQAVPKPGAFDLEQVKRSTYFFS
# T2 sequence (Q9WMX2 2420-3010): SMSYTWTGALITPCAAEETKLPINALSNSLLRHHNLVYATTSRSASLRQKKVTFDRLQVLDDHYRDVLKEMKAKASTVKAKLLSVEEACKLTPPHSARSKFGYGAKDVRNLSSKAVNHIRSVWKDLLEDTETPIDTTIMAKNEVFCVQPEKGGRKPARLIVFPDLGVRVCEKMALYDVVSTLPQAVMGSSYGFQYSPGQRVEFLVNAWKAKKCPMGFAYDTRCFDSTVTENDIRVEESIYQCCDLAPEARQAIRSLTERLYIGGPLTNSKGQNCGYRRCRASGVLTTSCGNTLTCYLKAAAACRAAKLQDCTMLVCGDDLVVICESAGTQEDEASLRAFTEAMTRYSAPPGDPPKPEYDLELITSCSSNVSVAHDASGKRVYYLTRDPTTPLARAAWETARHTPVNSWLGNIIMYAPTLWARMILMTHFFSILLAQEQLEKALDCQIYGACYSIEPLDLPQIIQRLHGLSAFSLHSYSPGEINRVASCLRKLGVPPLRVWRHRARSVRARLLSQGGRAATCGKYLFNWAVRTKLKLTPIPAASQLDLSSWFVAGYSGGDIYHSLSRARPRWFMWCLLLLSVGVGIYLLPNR
compound,measurement,setting,value
C[C@@]1(F)[C@H](O)[C@@H](COP(=O)(O)OP(=O)(O)OP(=O)(O)O)O[C@H]1n1cnc2c(=O)[nH]c(N)nc21 [AT-9010],IC50,[1],> 100 µM
same,Relative efficiency,"[2]; (kpol/Kd,app)incorrect/(kpol/Kd,app)correct",2.2 x 10^−6
same,Kd,"[2]; POLRMT-catalyzed nucleotide incorporation, read-out: Kd,app",204 ± 94 µM
same,"kpol/Kd, app",[2]; efficiency of incorporation,8.3 ± 4.0 x 10^−6 μM^-1s^-1
same,IC50,"[3]; as a competitive inhibitor of ATP, single assay",40.3 µM
same,IC50,"[3]; as an alternate substrate for GTP, mean of two assays",0.15 µM
C[C@@]1(F)[C@H](O)[C@@H](CO)O[C@H]1n1cnc2c(=O)[nH]c(N)nc21 [AT-273],"plasma concentration, individual monkeys",[4]; 0.500 h,BQL
same,"plasma concentration, individual monkeys",[4]; 1.00 h,BQL
same,plasma concentration,"[4]; single oral AT-527 100 mg/kg, 0.500 h, monkey 1",BQL
same,plasma concentration,"[4]; single oral AT-527 100 mg/kg, 0.500 h, monkey 2",BQL
same,plasma concentration,"[4]; single oral AT-527 300 mg/kg, 0.500 h, monkey 1",BQL
same,plasma concentration,"[4]; single oral AT-527 300 mg/kg, 0.500 h, monkey 2",BQL
same,plasma concentration,"[4]; single oral AT-527 300 mg/kg, 0.500 h, monkey 3",BQL
same,plasma concentration,"[4]; single oral AT-527 300 mg/kg, 1.00 h, monkey 1",BQL
same,plasma concentration,"[4]; single oral AT-527 300 mg/kg, 1.00 h, monkey 2",BQL
same,plasma concentration,"[4]; single oral AT-527 300 mg/kg, 1.00 h, monkey 3",BQL
same,plasma concentration,"[4]; single oral AT-527 300 mg/kg, 72.0 h, monkey 3",BQL
same,Cmax,"[4]; in vivo, po, 30 mg/kg",140 ± 10 nM
same,MRT last,"[4]; in vivo, po, 30 mg/kg",26.9 ± 1.9 h
same,Tmax,"[4]; in vivo, po, 30 mg/kg",16 ± 6.9 h
same,MRT last,"[4]; in vivo, po, 100 mg/kg",23.7 ± 3.8 h
same,MRT last,"[4]; in vivo, po, 300 mg/kg",27.9 ± 8.1 h
same,Tmax,"[4]; in vivo, po, 300 mg/kg",17.3 ± 11.5 h
same,AUC(0-t),"[4]; monkey plasma, single oral AT-527 30 mg/kg",5.42 ± 1.03 µM·h
same,AUC(0-t),"[4]; monkey plasma, single oral AT-527 100 mg/kg",10.1 ± 2.6 µM·h
same,Cmax,"[4]; monkey plasma, single oral AT-527 100 mg/kg, read-out: Cmax",440 ± 170 nM
same,AUC(0-t),"[4]; monkey plasma, single oral AT-527 300 mg/kg",12.2 ± 6.1 µM·h
same,Cmax,"[4]; monkey plasma, single oral AT-527 300 mg/kg, read-out: Cmax",310 ± 50 nM
same,AUC(0-t),[5],40.3 ± 10.9 µM·h
same,Cmax,[5],2500 ± 520 nM
same,MRT last,[5],17.5 ± 2.1 h
same,Tmax,[5],6.34 ± 0.58 h
